Assay results as given in US8562949B2, “Radiolabeled dihydrotetrabenazine derivatives and their use as imaging agents” (The Trustees of the University of Pennsylvania, priority 2006, dated 2013).

Target: VMAT2 (Mus musculus, UniProt Q8BRU6)
Assay: Blocking study in normal mice, co-injection of DTBZ or raclopride
Type: in vivo
Design: from tissue; host or cells: living ICR mice and lesioned mice; brain regions dissected after iv injection
Settings: 30 min after iv
Description: While under isoflurane anesthesia, 0.15 mL of a 0.1% bovine serum albumin solution containing [^18F]tracers (10-20 μCi) were injected directly into the tail vein of ICR mice (22-25 g, male) The mice (n=3 for each time point) were sacrificed by cervical dislocation at indicated time points post injection. The organs of interest were removed and weighed, and the radioactivity was counted with an automatic gamma counter. The percentage dose per organ was calculated by a comparison of the tissue counts to suitably diluted aliquots of the injected material. Total activities of blood were calculated under the assumption that they were 7% of the total body weight. The % dose/g of samples was calculated by comparing the sample counts with the count of the diluted initial dose. Different regions corresponding to striatum (ST), hippocampus (HP), cerebellum (CB), and cortex (CX) were dissected out from the brain.
Blocking studies were carried out by co-injection (iv) of the ^18F tracer with (±)DTBZ (3 mg/kg) or raclopride (1.2 mg/kg) into the animals. Thirty minutes after the injection, the animals were sacrificed and the brain regions including ST, HP, CB and CX were dissected out and the % dose/g were calculated. The ratios of target (ST) vs nontarget (CB) were compared between control and blocked groups.

Chain of VMAT2 (Q8BRU6 whole entry): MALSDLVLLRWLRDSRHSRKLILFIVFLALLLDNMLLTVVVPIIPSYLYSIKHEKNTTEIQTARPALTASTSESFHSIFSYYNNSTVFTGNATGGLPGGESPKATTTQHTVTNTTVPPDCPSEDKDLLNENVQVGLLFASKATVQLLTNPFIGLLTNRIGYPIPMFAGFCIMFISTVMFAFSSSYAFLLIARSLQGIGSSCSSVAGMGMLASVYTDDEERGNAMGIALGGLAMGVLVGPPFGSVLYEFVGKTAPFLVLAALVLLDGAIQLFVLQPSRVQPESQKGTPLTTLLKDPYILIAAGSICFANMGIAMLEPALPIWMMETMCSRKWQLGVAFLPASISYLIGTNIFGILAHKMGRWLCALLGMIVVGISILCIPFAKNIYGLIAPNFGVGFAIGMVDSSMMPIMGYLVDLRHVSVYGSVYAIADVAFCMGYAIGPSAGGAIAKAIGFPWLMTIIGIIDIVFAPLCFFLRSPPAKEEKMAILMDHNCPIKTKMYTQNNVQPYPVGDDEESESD

SMILES: COc1cc2c(cc1OCCC[18F])CCN1CC(CC(C)C)C(O)CC21 (racemic) [[^18F]6b]
- Organ distribution Blood (Control): 1.41 ± 0.20 % dose/g
- Organ distribution Bone (Control): 6.06 ± 1.11 % dose/g
- Organ distribution Brain (Control): 1.40 ± 0.12 % dose/g
- Organ distribution Heart (Control): 2.05 ± 0.13 % dose/g
- Organ distribution Kidney (Control): 5.90 ± 0.42 % dose/g
- Organ distribution Liver (Control): 13.9 ± 1.15 % dose/g
- Organ distribution Lung (Control): 2.78 ± 0.20 % dose/g
- Organ distribution Muscle (Control): 1.06 ± 0.06 % dose/g
- Organ distribution Skin (Control): 1.48 ± 0.09 % dose/g
- Organ distribution Spleen (Control): 2.90 ± 0.14 % dose/g
- Ratio (vs CB) Cortex (Control): 1.15
- Ratio (vs CB) Hippocampus (Control): 1.36
- Ratio (vs CB) Hypothalamus (Control): 2.54
- Ratio (vs CB) Striatum (Control): 3.40
- Regional brain distribution Cerebellum (CB) (Control): 1.05 ± 0.09 % dose/g
- Regional brain distribution Cortex (Control): 1.21 ± 0.15 % dose/g
- Regional brain distribution Hippocampus (Control): 1.43 ± 0.12 % dose/g
- Regional brain distribution Hypothalamus (Control): 2.67 ± 0.30 % dose/g
- Regional brain distribution Striatum (Control): 3.57 ± 0.30 % dose/g
- Organ distribution Blood (with 1.2 mg/kg raclopride): 1.60 ± 0.08 % dose/g
- Organ distribution Bone (with 1.2 mg/kg raclopride): 6.03 ± 1.07 % dose/g
- Organ distribution Brain (with 1.2 mg/kg raclopride): 1.64 ± 0.16 % dose/g
- Organ distribution Heart (with 1.2 mg/kg raclopride): 2.29 ± 0.06 % dose/g
- Organ distribution Kidney (with 1.2 mg/kg raclopride): 6.01 ± 0.50 % dose/g
- Organ distribution Liver (with 1.2 mg/kg raclopride): 14.6 ± 0.44 % dose/g
- Organ distribution Lung (with 1.2 mg/kg raclopride): 3.34 ± 0.24 % dose/g
- Organ distribution Muscle (with 1.2 mg/kg raclopride): 1.15 ± 0.03 % dose/g
- Organ distribution Skin (with 1.2 mg/kg raclopride): 1.58 ± 0.09 % dose/g
- Organ distribution Spleen (with 1.2 mg/kg raclopride): 3.25 ± 0.20 % dose/g
- Ratio (vs CB) Cortex (with 1.2 mg/kg raclopride): 1.18
- Ratio (vs CB) Hippocampus (with 1.2 mg/kg raclopride): 1.59
- Ratio (vs CB) Hypothalamus (with 1.2 mg/kg raclopride): 2.12
- Ratio (vs CB) Striatum (with 1.2 mg/kg raclopride): 3.93
- Regional brain distribution Cerebellum (CB) (with 1.2 mg/kg raclopride): 1.19 ± 0.11 % dose/g
- Regional brain distribution Cortex (with 1.2 mg/kg raclopride): 1.41 ± 0.15 % dose/g
- Regional brain distribution Hippocampus (with 1.2 mg/kg raclopride): 1.89 ± 0.85 % dose/g
- Regional brain distribution Hypothalamus (with 1.2 mg/kg raclopride): 2.52 ± 0.77 % dose/g
- Regional brain distribution Striatum (with 1.2 mg/kg raclopride): 4.67 ± 1.29 % dose/g
- Organ distribution Blood (with 3 mg/kg (+)DTBZ): 1.67 ± 0.04 % dose/g
- Organ distribution Bone (with 3 mg/kg (+)DTBZ): 6.54 ± 0.84 % dose/g
- Organ distribution Brain (with 3 mg/kg (+)DTBZ): 0.86 ± 0.04 % dose/g
- Organ distribution Heart (with 3 mg/kg (+)DTBZ): 2.36 ± 0.07 % dose/g
- Organ distribution Kidney (with 3 mg/kg (+)DTBZ): 4.94 ± 3.38 % dose/g
- Organ distribution Liver (with 3 mg/kg (+)DTBZ): 14.0 ± 0.56 % dose/g
- Organ distribution Lung (with 3 mg/kg (+)DTBZ): 3.27 ± 0.17 % dose/g
- Organ distribution Muscle (with 3 mg/kg (+)DTBZ): 1.28 ± 0.07 % dose/g
- Organ distribution Skin (with 3 mg/kg (+)DTBZ): 1.67 ± 0.02 % dose/g
- Organ distribution Spleen (with 3 mg/kg (+)DTBZ): 2.67 ± 0.17 % dose/g
- Ratio (vs CB) Cortex (with 3 mg/kg (+)DTBZ): 1.03
- Ratio (vs CB) Hippocampus (with 3 mg/kg (+)DTBZ): 0.94
- Ratio (vs CB) Hypothalamus (with 3 mg/kg (+)DTBZ): 1.04
- Ratio (vs CB) Striatum (with 3 mg/kg (+)DTBZ): 0.98
- Regional brain distribution Cerebellum (CB) (with 3 mg/kg (+)DTBZ): 0.89 ± 0.16 % dose/g
- Regional brain distribution Cortex (with 3 mg/kg (+)DTBZ): 0.91 ± 0.13 % dose/g
- Regional brain distribution Hippocampus (with 3 mg/kg (+)DTBZ): 0.83 ± 0.27 % dose/g
- Regional brain distribution Hypothalamus (with 3 mg/kg (+)DTBZ): 0.92 ± 0.23 % dose/g
- Regional brain distribution Striatum (with 3 mg/kg (+)DTBZ): 0.87 ± 0.18 % dose/g
